For series [1], the target named is Leukemia virus reverse transcriptase (Moloney murine leukemia virus, UniProt P03355). The settings on record: cited from earlier work.
Series [2] relates to rabbit aortic rings. As to the kind of experiment: Ex vivo endothelium-dependent relaxation of NE pre-constricted rabbit aortic rings. The settings on record: for relaxation in pre-contracted aortic rings, dose dependence: FIGS. 1A-1C, 10^-9 to 10^-4 M cumulative; for vasorelaxation, percent relaxation of NE constricted rings: concentration 10^−4M, +/−SE; for relaxant potency compared with positive control acetylcholine: significant at p=0.005 for A1 dimer. How it is done:
Effect of A-type procyanidins on endothelium-dependent relaxation was tested in an ex vivo experiment performed as previously described by Karim et al., J. Nutrl Suppl., 130 (8S): […]-[…] (2000), the relevant portions of which are hereby incorporated herein by reference. The advantage of using this method is that it assesses functional cardiovascular end points. […] In summary, rabbit aortic rings were obtained from male New Zealand White rabbits. Following isolation, the rings were mounted in oxygenated Kreb's buffer, and pre-constricted with NE (10^-6 M). When the tension had reached a steady state, cumulative concentrations of the test compounds were applied (10^-9 to 10^-4 M). A positive control acetylcholine (10^-6M) and a negative control L-NAME were included in the experiment. Use of L-NAME, which is a NO synthase (NOS) inhibitor, allows for differentiating between endothelium dependent and endothelium independent relaxation events. Denuding of aortic rings represent a similar control. 400 U/mL of catalase was added into the aortic bath prior to the addition of each of the test compounds to ensure that the observed effects are not caused by hydrogen peroxide (H202) generation in the culture medium. The relaxation response was measured as a function of the decrease in the tension (g) exerted by the aortic rings over time. Data obtained were expressed as a percent relaxation of the norepinephrine (NE) constricted rings. The same statistical approach as described above was used. Dose response curves were obtained by plotting the average percent relaxation (+/-SE) against the concentrations used.

The test system of series [3] is platelets in whole blood. Briefly: Collagen-induced platelet aggregation in whole blood (platelet counting). It is filed as cell-based, human. The settings on record: collagen 0.125-0.5 μg/ml, A1 dimer 0.3 mM; for collagen-induced platelet aggregation: FIG. 2, 4 and 10 min, ASA 100 μM. How it is done: Platelet aggregation of A1 dimer [A1D] was measured using a platelet counting technique, and formation of platelet/monocyte conjugates (P/M) and platelet/neutrophil conjugates (PIN) by flow cytometry. In later experiments the activation state of platelets associated with leukocytes (CD62P) was also measured and also the activation state of the leukocytes themselves (CD11b).
A1 dimer [A1D] was dissolved in ethanol. Once in solution, further dilution with saline was possible. Hirudin, (Revasc™) was obtained from Novartis (Basel, Switzerland) and was stored as a 5 mg/ml solution in saline in a glass vial at −20° C. Collagen (Nycomed) was from Axis Shield Diagnostics (Dundee, UK). Concentrations were prepared from the stock solution (1 mg/ml) using the isotonic glucose buffer supplied by the manufacturer. Aspirin (acetyl salicylic acid-ASA), adenosine diphosphate (ADP), platelet activating factor (PAF), arachidonic acid (AA) and epinephrine were from Sigma. Fixing solution consisted of 140 mM NaCl containing 0.16% w/v formaldehyde, 4.6 mM Na2EDTA, 4.5 mM Na2HP04 and 1.6 mM KH2PO4, pH 7.4.
Blood samples were studied using the Multi-Sample Agitator (MSA) produced by the Medical Engineering Unit (University of Nottingham). The MSA is used to maintain blood samples at 37° C. and to agitate small samples of blood at a stir speed of 1,000 rpm as required. […]
Following the 30 min pre-incubation, aliquots of blood (480 μl) were dispensed into small polystyrene tubes each containing a stir bar and stirred for 2 min in the MSA. […] The platelet count in the fixed samples was determined using the UltraFlo-100 Whole Blood Platelet Counter. Platelet aggregation was calculated as the percentage loss of single platelets with reference to the platelet count of the EDTA sample.
Blood was obtained from three different volunteers and the platelet aggregation and platelet/leukocyte conjugate formation was measured in response to collagen (0, 0.125, 0.25 and 0.5 μg/ml). […] Aggregation was measured at 4 and 10 min following agonist addition and platelet/leukocyte conjugate formation only at 10 min. […]

The test system of series [4] is CD11b on monocytes and neutrophils. Briefly: Leukocyte activation (CD11b expression) by flow cytometry. The settings on record: FIG. 3; 10 min; collagen 0.125-0.5 μg/ml; A1 dimer 0.3 mM, aspirin 100 μM. It counts as cell-based, human. Here is the method:
Platelet-leukocyte conjugate formation was measured in the same stirred samples used to measure platelet aggregation. Sub samples were taken 4 min or 10 min following the addition of agonist and transferred into the appropriate antibody or antibody mixture. These were then incubated in the dark at room temperature for not less than 20 min. Following red cell lysis and a washing procedure the cell suspensions were applied to either the FACScan or the LSRII flow cytometer. Leukocytes were identified by logical gating from dot plots of forward scatter (cell size) and side scatter (cell granularity) profiles acquired with linear amplification. […] Fluorescence parameters were acquired with logarithmic amplification. Platelet monocyte (P/M) and platelet neutrophil (P/N) conjugates were quantified as median CD42a (FITC) fluorescence of the monocyte (P/M mf) or neutrophil population (PIN mf). Leukocyte activation was measured by CD11b (AlexaFluor647) expression (CD11b-M for monocytes and CD11b-N for neutrophils). Platelet activation (P-selectin expression) was measured by CD62P (PE) positivity of the platelets associated with leukocytes as (CD62P-M on P/M and CD62P-N on PIN). […]
Blood was obtained from three different volunteers and the platelet aggregation (4 min) and platelet/leukocyte conjugate formation (10 min) was measured in response to collagen (0, 0.125, 0.25 and 0.5 μg/ml). […]
For orientation: In flow cytometry, cells or beads pass a laser one at a time.

For series [5], the system named is human umbilical vein endothelial cell (HUVEC). Briefly: NO production (NOx) in serum-free HUVEC culture. It counts as cell-based. How it is done: The compounds obtained as described in Example 1, were investigated for their effect on nitric oxide (NO) production and vasorelaxation using serum-free human umbilical vein endothelial cell (HUVEC) culture system in vitro and rabbit aortic ring model ex vivo, respectively. NO production by endothelial cells and relaxation of pre-constricted aortic rings are two main markers for evaluating cardiovascular effects of test compounds.
HUVECs obtained from a single donor were cultured in serum free, low protein (0.5 g/l), antibiotic-free cell culture medium supplemented with essential growth factors, nutrients and minerals. […] The cell culture medium was substituted with apo-transferrin, superoxide dismutase, and catalase to exclude secondary effects of test compounds involving their auto-oxidation mediated hydrogen peroxide formation.
(§1) Test compounds were evaluated with respect to their potential to acutely (2 hours) and chronically (5 doses given in a 24 h period) modulate NO production. Positive controls (acetylcholine and/or histamine) and negative control L-NNMA (NO synthase inhibitor) were included in all experiments. Cell counts and total protein were used to assess intra-assay variation. Potential toxic effects of tested compounds were also monitored (MTT reduction was measured).
NO production was evaluated by measuring the total amount of all major nitric oxide end products (NOx, including nitrate, nitrite, nitrosothiols) present in the cell culture medium. […] The amount of NO released from the culture medium was subsequently evaluated by measuring the chemiluminescence emitted during the stoichiometrical reaction between ozone and NO using NO Analyzer (Sievers Instruments, Inc. Boulder, Colo.).
The data presented herein were obtained from three experiments and were expressed as the concentration of NO present (in μmol/l) (as NOx) in the cell culture medium+/−standard deviation (SD). The data were corrected for the NOx intrinsically present in the fully supplemented cell culture medium and normalized with respect ot the volume of media from which the ample was drawn. Data were analyzed using Student's t-test with a 95% level of confidence. P values equal to or less than 0.005 were defined as statistically significant.
(§2) For the acute effect test, HUVECs were incubated with a single dose of A2 dimer and A-type trimer for 2 and 24 hours at concentrations of 100 nM, 1 μM, and 10 μM at 37 C and 5% CO2. No effect was observed on NO production after 2 hours.
For the chronic effect test, HUVECs were incubated with 5 subsequent doses of test compounds, each for 24 hours. After each 24 hour treatment, culture medium was replaced. A2 dimer and A-type trimer were tested.

The subject of series [6] is HUVECs. As to the kind of experiment: MTT reduction, toxic effects on HUVECs. It is filed as cell-based, human. The settings on record: acute effect test. How it is done:
as §1, §2
(Tetrazolium assays rely on reduction of a dye to a coloured formazan, in cell work by metabolically active cells.)

The test system of series [7] is platelet/monocyte and platelet/neutrophil conjugates in whole blood. As to the kind of experiment: Platelet-leukocyte conjugate formation (P/M, P/N) by flow cytometry. Conditions: FIG. 2; 10 min; collagen 0.125-0.5 μg/ml; ASA 100 μM. It is filed as cell-based, human.
Experimental: Platelet aggregation of A1 dimer [[MUT]] was measured using a platelet counting technique, and formation of platelet/monocyte conjugates (P/M) and platelet/neutrophil conjugates (PIN) by flow cytometry. In later experiments the activation state of platelets associated with leukocytes (CD62P) was also measured and also the activation state of the leukocytes themselves (CD11b). Blood was obtained from healthy volunteers, who denied taking any aspirin or NSAIDS in the previous 10 days. This blood was dispensed into graduated polystyrene tubes that contained hirudin (final concentration 50 μg/ml) and a small volume of the flavanol under investigation or ethanol as control. The final concentration of ethanol in the blood was always 0.3%. […] Platelet-leukocyte conjugate formation was measured in the same stirred samples used to measure platelet aggregation. […] Fluorescence parameters were acquired with logarithmic amplification. Platelet monocyte (P/M) and platelet neutrophil (P/N) conjugates were quantified as median CD42a (FITC) fluorescence of the monocyte (P/M mf) or neutrophil population (PIN mf). Leukocyte activation was measured by CD11b (AlexaFluor647) expression (CD11b-M for monocytes and CD11b-N for neutrophils). Platelet activation (P-selectin expression) was measured by CD62P (PE) positivity of the platelets associated with leukocytes as (CD62P-M on P/M and CD62P-N on PIN). […]
The mark [8] stands for this setting: acute test, single dose, after 2 hours, 100 nM, 1 μM and 10 μM.
Setting [9] is: acute test, single dose, after 24 hours, 1 μM.
Setting [10] is: acute test, single dose, after 24 hours, 10 μM, not statistically significant.
Where [11] appears, read: typical response of positive control.

For `Oc1cc(O)c2c(c1)O[C@H](c1ccc(O)c(O)c1)[C@@H](O)C2` [(+)-catechin], the “inhibition of Leukemia virus reverse transcriptase activity” value in series [1] is given as “inhibit”.

As for `Oc1cc(O)c2c(c1)O[C@@]1(c3ccc(O)c(O)c3)Oc3cc(O)c4c(c3[C@@H]2[C@H]1O)O[C@H](c1ccc(O)c(O)c1)[C@@H](O)C4` [A1 dimer, epicatechin-(4β→8; 2β→O→7)-catechin], in series [2], the “relaxation in pre-contracted aortic rings, dose dependence” value (“relaxation … dose dependence” below) is on record as “dose-dependent relaxation”; the “vasorelaxation, percent relaxation of NE constricted rings” value (“vasorelaxation, percent relaxation” below) is 93.20+/−3.46%; the “relaxant potency compared with positive control acetylcholine” value is recorded as “more potent relaxants that the positive control”. The collagen-induced platelet aggregation result in series [3] is reported as “inhibited”. In addition, the collagen induced aggregation entry in series [3] (FIG. 3, 4 min) is listed as “inhibited”. Further, in series [4], the “leukocyte activation (CD11b)” value is reported as “did not inhibit”.

Regarding `Oc1cc(O)c2c(c1)O[C@@]1(c3ccc(O)c(O)c3)Oc3cc(O)c4c(c3[C@@H]2[C@H]1O)O[C@H](c1ccc(O)c(O)c1)[C@H](O)C4` [A2 dimer, epicatechin-(4β→8; 2β→O→7)-epicatechin], in series [5] (setting [8]), the “effect on NO production” value is reported as “No effect”. Further, the “effect on NO production” value in series [5] (setting [9]) is recorded as “no effect”. The “effect on NO production” value in series [5] (setting [10]) was “increased NO production above the control level”. In series [6], the “toxic effects, MTT assay” value is recorded as “did not have toxic effects”. In series [2], the “relaxation … dose dependence” value was “dose-dependent relaxation”; the “vasorelaxation, percent relaxation” value is given as 85.00+/−2.91%; the “relaxant potency compared with positive control acetylcholine” value is “more potent relaxants that the positive control”.

For `Oc1cc(O)c2c(c1)O[C@@]1(c3ccc(O)c(O)c3)Oc3cc(O)c4c(c3[C@@H]2[C@H]1O)O[C@H](c1ccc(O)c(O)c1)[C@@H](O)C4c1c(O)cc(O)c2c1CC(c1ccc(O)c(O)c1)C(O)C2` (stereo partly drawn) [A-type trimer], the “effect on NO production” value in series [5] (setting [8]) is “No effect”; in series [5] (setting [9]), “no effect”; in series [5] (setting [10]), “increased NO production above the control level”; in series [5] (chronic test, 5 subsequent doses, each for 24 hours, p=0.041), “statistically significant increase in NO production”. The “toxic effects, MTT assay” value in series [6] was “did not have toxic effects”. Also, the “relaxation … dose dependence” value in series [2] was “dose-dependent relaxation”. Besides, in series [2], the “vasorelaxation, percent relaxation” value is recorded as 56.5+/−16.56%.

Turning to `CC(=O)Oc1ccccc1C(=O)O` [ASA, acetyl salicylic acid, reference compound], the collagen-induced platelet aggregation entry in series [3] was “effectively inhibited”. Further, in series [7], the “platelet/monocyte conjugates (P/M)” value is given as “effectively inhibited” and the “platelet/neutrophil conjugates (P/N)” value was “effectively inhibited”. In addition, in series [4], the “leukocyte activation (CD11b)” value is on record as “no effect”.

Consider `CC(=O)OCC[N+](C)(C)C` [Acetylcholine, acetylcholine, reference compound], for which, in series [2] (setting [11]), the “concentration producing a relaxation response” value was 10^−7 M and the “concentration reaching maximal relaxation” value is 10^−6 M.

The record behind these values is patent publication US20190269715A1, “COMPOSITIONS AND METHOD OF USE OF A-TYPE PROCYANIDINS” (MARS, INCORPORATED, priority 2004, published 2019).
